Results from patent US4925844A, “Antagonizing the pharmacological effects of a benzodiazepine receptor agonist” (ICI Americas Inc., priority 1989, dated 1990).

Tests used:
benzodiazepine receptors [1] = conditions: general statement on how activity is indicated in the test; cited from earlier work
benzodiazepine receptors [2] = experiment: [3H]-flunitrazepam binding test (FNB test); conditions: at a tested concentration of 500 nanomolar or less; rat cerebral cortex P2 membranes
rats [3] = experiment: Anti-conflict activity / shock-induced suppression of drinking (SSD) test; format: in vivo; conditions: for antagonism of the anticonflict or disinhibiting activity (increase in shocks taken) of benzodiazepine agonists: oral or i.p., 0.2 to 50 mg per kg, 30 to 45 minutes before the benzodiazepine agonist; for anticonflict activity (increase in mean number of shocks taken vs vehicle controls): substance given alone
Method: A modification of the method of Vogel and coworkers (1971) is used. […] In this test, benzodiazepine agonists (e.g. chlordiazepoxide) are administered either intraperitoneally (i.p.) or orally (p.o.) at 30 or 60 min., respectively, prior to the initiation of the test. […]
The mean number of shocks taken for the groups that received the test agents (benzodiazepine agonists) alone and in the presence of benzodiazepine antagonist are recorded.

[4] = test system: metrazole-induced convulsions; experiment: Antagonism of metrazole-induced convulsions (anticonvulsant activity); format: in vivo; conditions: substance given alone
Method: Further tests may be conducted to evaluate the agonist/antagonist profile of a compound. […] To determine the antagonist properties of a test compound, subjects are treated with test agent intraperitoneally or orally at selected intervals prior to or following treatment with a benzodiazepine agonist, and are then tested under the appropriate test conditions.

rats [5] = experiment: Neuromuscular impairment / roto-rod test; conditions: for antagonism of diazepam-induced neuromuscular impairment on the roto-rod: oral or intraperitoneal, 30 to 45 minutes before the benzodiazepine agonist; for neuromuscular uncoordination (ataxia) on the roto-rod: benzodiazepine agonist alone
Method: Further tests may be conducted to evaluate the agonist/antagonist profile of a compound. The procedures or methods used to determine anticonflict (shock-induced suppressions of drinking test), antagonism of metrazole-induced convulsions and neuromuscular impairment (roto-rod studies) are published in Eur. J. Pharmacol. 78(3):323-333 (1980) and briefly discussed below. To determine the antagonist properties of a test compound, subjects are treated with test agent intraperitoneally or orally at selected intervals prior to or following treatment with a benzodiazepine agonist, and are then tested under the appropriate test conditions.
A roto-rod test (Rinnard and Car, J. Pharmacol. and Exp. Therap. 121:354 (1957)) which measures the rat's muscle tone and ability to perform coordinated locomotor tasks may be used to evaluate a test compound's antagonist properties. In the roto-rod test, rats are trained to maintain themselves for at least 1 min on a rotating rod (6 r.p.m.). Subjects are treated with a test compound and are retested for their ability to maintain themselves on the roto-rod at 30 and 60 min. post-drug administration. Subjects that fail to stay on the rod for a one-minute period are considered to be neuromuscularly impaired (ataxia) and the ED50 (that dose which would be expected to produce ataxia in 50% of the rats tested) is calculated. […] The benzodiazepine antagonists may also be administered immediately prior to, or immediately after, the benzodiazepine agonist in this test.

male Wistar rats = experiment: Overt toxicity after intraperitoneal dosing; format: in vivo
Text: In general, the compound 4-amino-8-phenyl-N-propyl-3-cinnolinecarboxamide is believed to be able to antagonize the effects of benzodiazepine receptor agonists and will be useful whenever such antagonism is desired.

Row | Structure (SMILES) | effect on flunitrazepam binding (displacement or enhancement) (benzodiazepine receptors [1]) | antagonism of the anticonflict or disinhibiting activity (increase in shocks taken) of benzodiazepine agonists (rats [3]) | anticonflict activity (increase in mean number of shocks taken vs vehicle controls) (rats [3]) | antagonism of diazepam-induced neuromuscular impairment on the roto-rod (rats [5]) | neuromuscular uncoordination (ataxia) on the roto-rod (rats [5]) | other results
1 | CCCCNc1c(C(=O)OCC)cnc2c1cnn2CC [cartazolate] | enhancement of the binding |  |  |  |  | 
2 | CCCCNc1c(C(=O)OCC)c(C)nc2c1cnn2CC [tracazolate] | enhancement of the binding |  |  |  |  | 
3 | CCCNC(=O)c1nnc2c(-c3ccccc3)cccc2c1N [formula Ia, 4-amino-8-phenyl-N-propyl-3-cinnolinecarboxamide] |  | antagonized | does not exhibit | antagonized |  | displacement of specific [3H]-flunitrazepam binding (benzodiazepine receptors [2]): ≥ 50%; mean number of shocks taken (reversal of chlordiazepoxide effect) (rats [3]; rats, oral 1.25 mg per kg five minutes prior to 18 mg per kg oral chlordiazepoxide): did not exhibit a significant increase; anticonvulsant activity typical of benzodiazepine agonists [4]: does not exhibit; neuromuscular impairment (reversal of diazepam effect; ability to remain on the roto-rod) (rats [5]; rats, intraperitoneal 1.25 mg per kg five minutes after 20 mg per kg intraperitoneal diazepam): did not exhibit significant neuromuscular impairment; toxicological problems (male Wistar rats; at several multiples of a therapeutic dose): has not exhibited toxicological problems; overt toxic effects (male Wistar rats; male Wistar rats, intraperitoneal dose of 50 mg per kg): no overt toxic effects
4 | CNC1=Nc2ccc(Cl)cc2C(c2ccccc2)=[N+]([O-])C1 [chlordiazepoxide] |  |  | significant (P<0.05) anticonflict activity |  | produce neuromuscular uncoordination (ataxia) at relatively low doses | mean number of shocks taken as compared to vehicle controls (rats [3]; rats, oral dose of 18 mg per kg chlordiazepoxide alone): significant increases
5 | CN1C(=O)CN=C(c2ccccc2)c2cc(Cl)ccc21 [diazepam] |  |  | significant (P<0.05) anticonflict activity |  | produce neuromuscular uncoordination (ataxia) at relatively low doses | 
6 | CCOC(=O)c1ncn2c1CN(C)C(=O)c1cc(F)ccc1-2 [ethyl 8-fluoro-5,6-dihydro-5-methyl-6-oxo-4H-imidazo(1,5a)(1,4)benzodiazepine-3-carboxylate] |  | antagonized |  | antagonized |  | 
